Test results: ChEMBL document CHEMBL1201862, “PubChem BioAssay data set” (2004)
Calls of active or inactive are those of the source.

Key:
[1] = system: Staphylococcus aureus; assay: Inhibitors of Bacterial Quorum Sensing Structure Activity Relationship (SAR) Analysis: Dose Response Assay. [Related pubchem assays: 700, 527 ]; type: functional, organism-based
[2] = target: T1, Induced myeloid leukemia cell differentiation protein Mcl-1 (Homo sapiens, UniProt Q07820); type: functional
[3] = target: Bcl-2-like protein 1 (Homo sapiens, UniProt Q07817); assay: BCL-XL inhibitors, dose response, selectivity assay for MCL1 inhibitor project, biochemical, fluorescence polarization, 1536-well (AID 2218)
Chain of Bcl-2-like protein 1 (Q07817 whole entry): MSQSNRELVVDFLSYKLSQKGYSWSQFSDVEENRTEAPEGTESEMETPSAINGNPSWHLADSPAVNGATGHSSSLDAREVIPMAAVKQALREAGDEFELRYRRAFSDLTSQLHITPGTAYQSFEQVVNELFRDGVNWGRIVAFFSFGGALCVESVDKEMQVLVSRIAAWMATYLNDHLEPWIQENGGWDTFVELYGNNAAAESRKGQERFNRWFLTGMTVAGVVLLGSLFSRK

[4] = target: Peroxisome proliferator-activated receptor gamma/Nuclear receptor corepressor 2 (Homo sapiens, UniProt P37231+Q9Y618); type: functional
Chain of Peroxisome proliferator-activated receptor gamma/Nuclear receptor corepressor 2 (P37231 whole entry): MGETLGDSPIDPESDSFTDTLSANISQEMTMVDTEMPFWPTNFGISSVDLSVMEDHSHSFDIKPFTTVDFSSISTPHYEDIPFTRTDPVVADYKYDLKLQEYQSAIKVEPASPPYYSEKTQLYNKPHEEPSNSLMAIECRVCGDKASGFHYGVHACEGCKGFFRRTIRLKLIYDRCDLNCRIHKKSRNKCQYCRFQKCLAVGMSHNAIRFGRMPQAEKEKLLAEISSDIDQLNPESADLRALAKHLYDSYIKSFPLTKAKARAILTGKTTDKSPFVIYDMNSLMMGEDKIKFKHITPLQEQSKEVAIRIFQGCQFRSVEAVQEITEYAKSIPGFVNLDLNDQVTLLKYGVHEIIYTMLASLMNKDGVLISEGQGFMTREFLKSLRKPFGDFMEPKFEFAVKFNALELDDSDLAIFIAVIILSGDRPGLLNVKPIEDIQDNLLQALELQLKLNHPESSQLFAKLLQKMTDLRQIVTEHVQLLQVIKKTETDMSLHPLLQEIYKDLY
Chain of Peroxisome proliferator-activated receptor gamma/Nuclear receptor corepressor 2 (Q9Y618 whole entry): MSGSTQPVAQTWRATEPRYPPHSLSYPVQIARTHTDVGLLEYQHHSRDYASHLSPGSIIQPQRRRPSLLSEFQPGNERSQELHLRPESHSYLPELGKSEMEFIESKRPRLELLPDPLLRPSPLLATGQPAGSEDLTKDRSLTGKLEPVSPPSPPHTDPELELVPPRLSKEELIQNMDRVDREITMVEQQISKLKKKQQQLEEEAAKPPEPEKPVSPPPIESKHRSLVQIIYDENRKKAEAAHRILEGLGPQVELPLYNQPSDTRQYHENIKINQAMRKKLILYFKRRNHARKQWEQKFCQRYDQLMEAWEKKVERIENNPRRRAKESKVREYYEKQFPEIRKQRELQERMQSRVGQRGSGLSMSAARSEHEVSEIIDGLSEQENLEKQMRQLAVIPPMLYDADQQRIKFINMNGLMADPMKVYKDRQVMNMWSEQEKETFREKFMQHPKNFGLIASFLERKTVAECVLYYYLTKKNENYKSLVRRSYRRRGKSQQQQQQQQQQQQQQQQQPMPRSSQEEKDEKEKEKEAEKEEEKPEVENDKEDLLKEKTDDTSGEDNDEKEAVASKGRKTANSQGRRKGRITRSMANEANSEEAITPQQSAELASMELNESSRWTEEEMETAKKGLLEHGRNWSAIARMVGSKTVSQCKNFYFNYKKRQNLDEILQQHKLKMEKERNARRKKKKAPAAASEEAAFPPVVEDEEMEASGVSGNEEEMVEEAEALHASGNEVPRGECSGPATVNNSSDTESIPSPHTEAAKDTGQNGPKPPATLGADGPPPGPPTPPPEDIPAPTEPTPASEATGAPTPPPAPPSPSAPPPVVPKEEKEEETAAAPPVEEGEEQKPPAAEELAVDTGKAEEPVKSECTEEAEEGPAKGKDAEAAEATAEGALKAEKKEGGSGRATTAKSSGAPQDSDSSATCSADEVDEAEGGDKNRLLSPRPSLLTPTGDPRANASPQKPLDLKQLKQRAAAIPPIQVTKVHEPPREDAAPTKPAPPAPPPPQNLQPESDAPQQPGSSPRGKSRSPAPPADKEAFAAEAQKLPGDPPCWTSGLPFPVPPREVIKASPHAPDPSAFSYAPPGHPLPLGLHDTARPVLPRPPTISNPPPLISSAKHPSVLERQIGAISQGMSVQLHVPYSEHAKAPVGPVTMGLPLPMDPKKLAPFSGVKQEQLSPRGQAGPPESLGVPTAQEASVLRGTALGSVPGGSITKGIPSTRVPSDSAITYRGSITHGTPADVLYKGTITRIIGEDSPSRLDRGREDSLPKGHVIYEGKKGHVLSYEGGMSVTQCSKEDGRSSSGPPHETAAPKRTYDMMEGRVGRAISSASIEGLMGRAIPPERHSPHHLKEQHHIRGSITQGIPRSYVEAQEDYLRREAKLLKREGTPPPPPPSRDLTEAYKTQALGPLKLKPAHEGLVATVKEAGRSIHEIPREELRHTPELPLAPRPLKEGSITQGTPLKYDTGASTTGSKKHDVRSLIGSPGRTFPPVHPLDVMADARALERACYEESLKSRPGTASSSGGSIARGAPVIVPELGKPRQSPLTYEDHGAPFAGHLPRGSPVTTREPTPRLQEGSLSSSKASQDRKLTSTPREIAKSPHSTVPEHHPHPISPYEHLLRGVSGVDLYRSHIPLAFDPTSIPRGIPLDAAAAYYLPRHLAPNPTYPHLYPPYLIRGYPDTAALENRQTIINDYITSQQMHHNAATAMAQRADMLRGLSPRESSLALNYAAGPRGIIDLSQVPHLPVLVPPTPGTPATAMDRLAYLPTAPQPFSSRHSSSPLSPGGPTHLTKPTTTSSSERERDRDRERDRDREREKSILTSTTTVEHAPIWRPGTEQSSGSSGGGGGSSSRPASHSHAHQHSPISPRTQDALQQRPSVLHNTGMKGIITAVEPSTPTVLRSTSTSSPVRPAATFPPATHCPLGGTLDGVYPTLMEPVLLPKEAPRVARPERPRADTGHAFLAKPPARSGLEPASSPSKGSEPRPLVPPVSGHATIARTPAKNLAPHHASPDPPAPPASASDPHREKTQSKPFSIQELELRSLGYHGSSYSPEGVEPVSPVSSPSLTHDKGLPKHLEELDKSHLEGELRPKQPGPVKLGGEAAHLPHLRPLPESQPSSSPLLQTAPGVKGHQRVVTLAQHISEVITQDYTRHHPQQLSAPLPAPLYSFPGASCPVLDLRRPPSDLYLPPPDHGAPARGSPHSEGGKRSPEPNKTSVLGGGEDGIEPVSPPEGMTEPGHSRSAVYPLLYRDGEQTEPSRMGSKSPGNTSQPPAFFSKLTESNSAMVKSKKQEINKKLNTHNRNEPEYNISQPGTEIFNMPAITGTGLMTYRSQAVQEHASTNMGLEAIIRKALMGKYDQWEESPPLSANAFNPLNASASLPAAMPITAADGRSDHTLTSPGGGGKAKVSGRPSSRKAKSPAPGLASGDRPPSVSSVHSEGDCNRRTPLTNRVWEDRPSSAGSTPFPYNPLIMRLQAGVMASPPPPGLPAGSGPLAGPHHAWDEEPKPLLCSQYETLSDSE

[5] = target: T1, Induced myeloid leukemia cell differentiation protein Mcl-1; assay: MCL1-BIM BH3 interaction inhibitors, dose response, biochemical, fluorescence polarization, BIM-BH3 peptide, 1536-well (AID 2217)
[6] = target: Photoreceptor-specific nuclear receptor (Homo sapiens, UniProt Q9Y5X4); type: functional;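 further: potency for compounds that break the NR2E3 corepressor complex and count as activators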
Chain of Photoreceptor-specific nuclear receptor (Q9Y5X4 whole entry): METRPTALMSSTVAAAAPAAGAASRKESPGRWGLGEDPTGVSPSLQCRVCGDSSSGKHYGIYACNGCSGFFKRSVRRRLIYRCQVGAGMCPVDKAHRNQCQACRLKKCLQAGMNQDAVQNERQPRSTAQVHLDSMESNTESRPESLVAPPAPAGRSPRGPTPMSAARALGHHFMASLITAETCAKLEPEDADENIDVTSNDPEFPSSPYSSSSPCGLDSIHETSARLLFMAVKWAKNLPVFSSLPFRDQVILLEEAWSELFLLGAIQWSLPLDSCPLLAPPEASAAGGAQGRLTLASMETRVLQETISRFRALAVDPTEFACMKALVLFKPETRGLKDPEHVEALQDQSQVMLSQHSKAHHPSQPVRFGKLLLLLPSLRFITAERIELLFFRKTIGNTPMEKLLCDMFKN

[7] = target: T2, Bcl-2-like protein 10 (Homo sapiens, UniProt Q9HD36); assay: Biochemical TR3 FP assay of Bcl-B inhibitor potency, EC50 (AID 1243); type: functional
T2 sequence (Q9HD36 whole entry): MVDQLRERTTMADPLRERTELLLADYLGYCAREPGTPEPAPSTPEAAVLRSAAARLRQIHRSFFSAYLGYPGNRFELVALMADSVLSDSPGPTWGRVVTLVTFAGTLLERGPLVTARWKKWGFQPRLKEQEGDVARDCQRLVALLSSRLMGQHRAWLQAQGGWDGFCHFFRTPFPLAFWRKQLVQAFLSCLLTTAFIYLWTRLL

[8] = target: T3, Interleukin-8 (Homo sapiens, UniProt P10145); assay: SAR analysis of GM-Tri-DAP induced IL-8 secretion in MCF-7/NOD1 cells - Set 2. [Related pubchem assays (depositor defined):AID1575, AID1578, AID2333]; type: functional, cell-based
T3 sequence (P10145 whole entry): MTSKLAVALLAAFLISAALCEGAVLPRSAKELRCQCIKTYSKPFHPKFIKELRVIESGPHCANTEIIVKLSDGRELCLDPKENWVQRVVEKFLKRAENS

[9] = system: HEK293; assay: NOD1 signaling inhibitors, primary screen, cell-based, luminescence, uHTS (AID 1578); type: functional; details: Homo sapiens
[10] = Luminescence-based counterscreen assay for KLF5 inhibitors: dose response cell-based high throughput screening assay to identify cytotoxic compounds using the IEC-6 intestinal epithelial cell line. [Related pubchem assays: 1700 (Primary screen.), 1834 (Confirmation screen.), 1858 (Summary AID.), 1905 (Counterscreen.)]; type: functional
[11] = cytotoxicity toward NIH3T3 fibroblasts, dose response, counter-screen, cell-based, ATP luminescence, mouse fibroblasts (AID 2010); type: functional;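 further: cells exposed to compound for about 90 hours before reading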
[12] = target: Tumor necrosis factor (Homo sapiens, UniProt P01375); assay: TNFa-triggered NF-kB activation inhibitors, SAR follow-up, cell-based, revised (AID 2337); type: functional
[13] = target: T4, Nucleotide-binding oligomerization domain-containing protein 1 (Homo sapiens, UniProt Q9Y239); assay: NOD1 signaling inhibitors, SAR follow-up, revised (AID 2333); type: functional
T4 sequence (Q9Y239 whole entry): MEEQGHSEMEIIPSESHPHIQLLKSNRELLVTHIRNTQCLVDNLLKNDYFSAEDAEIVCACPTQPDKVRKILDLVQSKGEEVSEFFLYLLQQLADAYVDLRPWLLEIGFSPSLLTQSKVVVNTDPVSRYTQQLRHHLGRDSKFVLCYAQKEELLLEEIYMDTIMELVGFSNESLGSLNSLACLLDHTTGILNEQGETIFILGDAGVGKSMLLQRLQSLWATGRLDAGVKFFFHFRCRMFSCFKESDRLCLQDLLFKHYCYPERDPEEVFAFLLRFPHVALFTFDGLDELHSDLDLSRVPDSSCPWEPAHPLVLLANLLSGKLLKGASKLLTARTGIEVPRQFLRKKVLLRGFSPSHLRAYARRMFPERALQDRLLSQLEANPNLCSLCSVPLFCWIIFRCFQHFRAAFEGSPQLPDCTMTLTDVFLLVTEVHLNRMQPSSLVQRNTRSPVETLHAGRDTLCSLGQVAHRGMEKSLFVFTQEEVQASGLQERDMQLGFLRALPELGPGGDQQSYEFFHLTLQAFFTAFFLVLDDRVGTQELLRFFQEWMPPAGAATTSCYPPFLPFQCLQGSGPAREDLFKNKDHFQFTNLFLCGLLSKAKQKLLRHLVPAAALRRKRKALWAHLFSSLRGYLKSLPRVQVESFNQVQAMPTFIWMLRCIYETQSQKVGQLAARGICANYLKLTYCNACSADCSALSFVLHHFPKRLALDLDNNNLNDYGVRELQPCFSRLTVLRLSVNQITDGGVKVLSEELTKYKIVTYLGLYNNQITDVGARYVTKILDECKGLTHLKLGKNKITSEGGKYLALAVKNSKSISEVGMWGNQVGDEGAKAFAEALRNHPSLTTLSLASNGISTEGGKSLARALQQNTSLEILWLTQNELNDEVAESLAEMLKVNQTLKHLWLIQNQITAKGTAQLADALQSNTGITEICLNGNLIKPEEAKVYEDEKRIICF

[14] = system: Vero; assay: cells; type: functional; details: Chlorocebus sabaeus
[15] = inhibitors of firefly luciferase expression or activity, dose response, H4 neuroglioma cells, luminescence (AID 1990); type: functional, cell-based
[16] = NIH-3T3 fibroblast cytotoxicity, dose response, cytotoxicity control, cell-based, fluorescence, Alamar Blue, secondary assay (AID 2327); type: functional;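 further: NIH-3T3 mouse fibroblasts cultured with fluconazole at 8 µg/mL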
[17] = system: HEK293; assay: NOD2 signaling inhibitors in MDP-stimulated cells, cell-based, uHTS, luminescence (AID 2001); type: functional; details: Homo sapiens
[18] = target: T3, Interleukin-8; assay: SAR analysis of Tumor necrosis factor alpha (TNF-alpha) induced IL-8 secretion in MCF-7/NOD1 cells - Set 2. [Related pubchem assays (depositor defined):AID1575, AID2250, AID2260]; type: functional, cell-based
[19] = target: T5, Nucleotide-binding oligomerization domain-containing protein 2 (Homo sapiens, UniProt Q9HC29); assay: PubChem AID 2334; type: functional
T5 sequence (Q9HC29 whole entry, the tested form may be a part): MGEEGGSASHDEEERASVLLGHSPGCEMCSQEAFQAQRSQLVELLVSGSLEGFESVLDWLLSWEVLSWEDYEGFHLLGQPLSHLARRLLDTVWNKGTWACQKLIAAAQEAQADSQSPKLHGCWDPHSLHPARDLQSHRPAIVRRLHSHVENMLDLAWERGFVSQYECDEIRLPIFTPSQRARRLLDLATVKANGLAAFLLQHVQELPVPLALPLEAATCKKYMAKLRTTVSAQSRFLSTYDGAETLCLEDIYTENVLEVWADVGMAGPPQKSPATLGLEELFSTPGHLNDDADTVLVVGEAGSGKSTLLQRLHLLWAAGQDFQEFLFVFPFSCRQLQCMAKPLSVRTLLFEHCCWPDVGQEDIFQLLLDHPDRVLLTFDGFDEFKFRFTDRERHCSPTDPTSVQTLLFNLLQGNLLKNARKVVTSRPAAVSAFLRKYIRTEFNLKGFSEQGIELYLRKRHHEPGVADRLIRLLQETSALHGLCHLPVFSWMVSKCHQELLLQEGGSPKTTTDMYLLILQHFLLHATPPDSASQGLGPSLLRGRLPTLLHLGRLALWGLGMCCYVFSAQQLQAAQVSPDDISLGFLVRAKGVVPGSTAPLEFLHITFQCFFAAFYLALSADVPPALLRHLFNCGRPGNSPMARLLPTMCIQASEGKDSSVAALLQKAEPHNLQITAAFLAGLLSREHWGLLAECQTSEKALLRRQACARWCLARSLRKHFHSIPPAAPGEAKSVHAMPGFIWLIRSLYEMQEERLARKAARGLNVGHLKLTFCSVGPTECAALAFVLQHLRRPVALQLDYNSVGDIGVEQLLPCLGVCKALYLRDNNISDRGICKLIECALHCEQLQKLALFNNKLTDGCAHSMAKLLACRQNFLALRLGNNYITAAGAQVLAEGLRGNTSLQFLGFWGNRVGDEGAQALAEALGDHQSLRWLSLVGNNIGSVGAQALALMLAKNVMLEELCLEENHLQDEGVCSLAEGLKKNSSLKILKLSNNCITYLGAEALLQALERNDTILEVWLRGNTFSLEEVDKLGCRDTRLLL

[20] = C. albicans growth with fluconazole, confirmation, fluorescence, retest (AID 2467); type: functional, cell-based
[21] = system: HEK293; assay: cells; type: functional, cell-based; details: Homo sapiens
[22] = target: Paired box protein Pax-8 (Homo sapiens, UniProt Q06710); assay: inhibitors of PAX8-driven TPO luciferase reporter, dose response, RMG-I cells, cherry-pick (AID 687027); type: functional, cell-based;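 further: luciferase reporter driven by Pax8 target thyroperoxidase promoter measured by SteadyGlo luminescence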
[23] = Luminescence Cell-Based Dose Response HTS to Identify Inhibitors of 5'UTR Stem-Loop Driven Prion Protein mRNA Translation in H4 Neuroglioblastoma Cells. [Related pubchem assays: 1827 (Project Summary), 1813 (Primary HTS)]; type: functional
[24] = system: INS1; assay: beta cell apoptosis inhibitors, cytokine rescue, dose response, luminescence, retest (AID 449756); type: functional, cell-based; details: Rattus norvegicus;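 further: cell death triggered by IL-1 beta plus TNF-alpha plus IFN-gamma mixture; protective hits raise ATP signal compared with cytokine alone wells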
[25] = system: HEK293; assay: cells; details: Homo sapiens
[26] = target: T5, Nucleotide-binding oligomerization domain-containing protein 2; assay: NOD2 signaling inhibitors, cell-based, luminescence, uHTS, HEK293 (AID 1566); type: functional
[27] = system: Vero; assay: cells; type: functional, cell-based; details: Chlorocebus sabaeus
[28] = inhibitors of intracellular T. cruzi replication, confirmation, NIH3T3 host cells, beta-gal luminescence (AID 2044); type: functional, cell-based;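 further: intracellular parasites grown in NIH/3T3 mouse fibroblasts as host cells; luminescent beta-galactosidase reporter signal from transgenic T. cruzi replicating inside host cells; inhibitors lower the luminescence signal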
[29] = system: HEK293; assay: cells; type: functional, cell-based; details: Homo sapiens; remark: listed apart in the source
[30] = inhibitors of SNCA 5'UTR-driven reporter translation, confirmation, H4 neuroglioma cells, luminescence (AID 1988); type: functional, cell-based
[31] = system: HEK293; assay: cells; type: functional, cell-based; details: Homo sapiens; remark: listed apart in the source
[32] = target: Serine/threonine-protein phosphatase (Homo sapiens, UniProt Q9BPW0); assay: Counterscreen for inhibitors of PP1: fluorescence-based biochemical high throughput dose response assay to identify inhibitors of Protein Phosphatase 5 (PP5). [Related pubchem assays: 2034 (Summary (PP5 inhibitors)), 1987 (PP5 inhibitors in singlate), 2235 (PP1 inhibitors in singlate)]
[33] = target: Serine/threonine-protein phosphatase PP1-alpha catalytic subunit (Homo sapiens, UniProt P62136); assay: PP1 phosphatase inhibitors, dose response, biochemical, fluorescence (AID 2403);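 further: phosphatase turnover of OMFP into fluorescent 3-O-methylfluorescein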
[34] = target: Nonstructural protein 1 (Influenza A virus, UniProt Q194T2); type: functional, Influenza A virus (A/California/07/2009(H1N1))

T1 sequence (Q07820 whole entry): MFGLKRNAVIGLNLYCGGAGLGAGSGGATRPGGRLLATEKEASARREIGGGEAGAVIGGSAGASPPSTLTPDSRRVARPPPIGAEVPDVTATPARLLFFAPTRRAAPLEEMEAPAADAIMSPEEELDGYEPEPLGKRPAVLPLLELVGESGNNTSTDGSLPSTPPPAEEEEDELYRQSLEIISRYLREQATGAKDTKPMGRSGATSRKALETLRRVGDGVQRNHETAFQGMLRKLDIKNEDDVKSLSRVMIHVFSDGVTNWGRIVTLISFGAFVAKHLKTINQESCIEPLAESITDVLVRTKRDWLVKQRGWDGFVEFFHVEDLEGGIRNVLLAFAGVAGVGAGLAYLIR

**Q.** Which IC50 [1] does the source give for `CCOC(=O)c1c(C)oc2cc(Br)c(O)c(Br)c12` here?
**A.** The IC50 was 0.779 µM (active).

**Q.** Which results are given for `Cc1ccc(-c2cc(C(=O)O)c3cc(Br)ccc3n2)o1`?
**A.** IC50 [2]: 2.98 µM (active); IC50 [3]: > 109 µM (not active); IC50 [4]: 3.93 µM (active); IC50 [5]: 27.9 µM (not active); IC50 [6]: > 39.8 µM (not active); EC50 [7]: 16.5 µM (active)

**Q.** For `Oc1ccc(N=Nc2ccccc2C(F)(F)F)c2cccnc12`, which IC50 [8] is on record?
**A.** Its IC50 is 19.8 µM (active).

**Q.** What about the EC50 [9] of the same molecule?
**A.** Its EC50 is 3.71 µM (active).

**Q.** And the IC50 [10]?
**A.** Its IC50 is 6.27 µM (active).

**Q.** What about the EC50 [11] of the same molecule?
**A.** Its EC50 is 6.95 µM (active).

**Q.** What about the IC50 [12] of the same molecule?
**A.** Its IC50 is 7.03 µM (active).

**Q.** And the IC50 [13]?
**A.** The IC50 was > 20 µM (inactive).

**Q.** What about the CC50 [14] of the same molecule?
**A.** Its CC50 is 4.62 µM (active).

**Q.** And the EC50 [15]?
**A.** The EC50 was 1.9 µM (active).

**Q.** What about the EC50 [16] of the same molecule?
**A.** The EC50 was > 160 µM (inactive).

**Q.** And the IC50 [17]?
**A.** The IC50 was 4.21 µM (inactive).

**Q.** And the IC50 [18]?
**A.** Its IC50 is > 25 µM (inactive).

**Q.** What about the IC50 [19] of the same molecule?
**A.** The IC50 was > 20 µM (inactive).

**Q.** And the EC50 [20]?
**A.** Its EC50 is 1.57 µM (active).

**Q.** What about the IC50 [21] of the same molecule?
**A.** The IC50 was > 20 µM (inactive).

**Q.** What about the AC50 [22] of the same molecule?
**A.** The AC50 was 4.15 µM (active).

**Q.** What about the EC50 [23] of the same molecule?
**A.** Its EC50 is 1.08 µM (active).

**Q.** What about the AC50 [24] of the same molecule?
**A.** The AC50 was 1.17 µM (active).

**Q.** And the IC50 [25]?
**A.** Its IC50 is > 20 µM (inactive).

**Q.** And the EC50 [26]?
**A.** Its EC50 is > 20 µM (inactive).

**Q.** What about the IC50 [27] of the same molecule?
**A.** The IC50 was > 25 µM (active).

**Q.** And the EC50 [28]?
**A.** The EC50 was 0.633 µM (active).

**Q.** And the IC50 [29]?
**A.** Its IC50 is > 20 µM (inactive).

**Q.** What about the EC50 [30] of the same molecule?
**A.** Its EC50 is 0.308 µM (active).

**Q.** What about the IC50 [31] of the same molecule?
**A.** The IC50 was > 20 µM (inactive).

**Q.** Which IC50 [32] does the source give for `Cc1ccn2c(Nc3ccc4c(c3)OCO4)c(-c3ccccn3)nc2c1` here?
**A.** Its IC50 is 37.9 µM (not active).

**Q.** What about the IC50 [33] of the same molecule?
**A.** The IC50 was 6.76 µM (active).

**Q.** And the IC50 [34]?
**A.** The IC50 was 11.5 µM (active).
